Where two headings read alike, the source gives them in different places.

Among the data in patent US20130217664A1, “NOVEL COMPOUNDS USEFUL FOR THE TREATMENT OF DEGENERATIVE AND INFLAMMATORY DISEASES” (priority 2012, published 2013) are IC50 values, retold here.

In assay [1] the target is T1, human JAK3 (Homo sapiens, UniProt P52333).
T1 construct: catalytic domain (amino acids 781-1124; catalog number PV3855); purchased Invitrogen PV3855
Description: JAK3 inhibition assay. As to conditions: recombinant human JAK3 catalytic domain; polyGT substrate. The class given is biochemical. In short, it runs like this: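 Radiometric kinase assay: 0.5 ng JAK3 with 2.5 μg polyGT in Tris pH 7.5/MgCl2 buffer, 1 μM ATP plus 0.25 μCi 33P-γ-ATP, 1% DMSO, 45 min at 30 °C, stopped with phosphoric acid.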

In assay [2] the target is T2, human JAK1 (Homo sapiens, UniProt P23458).
T2 construct: catalytic domain, amino acids 866-1154; catalog number PV4774; purchased Invitrogen PV4774
T2 sequence (P23458 866-1154): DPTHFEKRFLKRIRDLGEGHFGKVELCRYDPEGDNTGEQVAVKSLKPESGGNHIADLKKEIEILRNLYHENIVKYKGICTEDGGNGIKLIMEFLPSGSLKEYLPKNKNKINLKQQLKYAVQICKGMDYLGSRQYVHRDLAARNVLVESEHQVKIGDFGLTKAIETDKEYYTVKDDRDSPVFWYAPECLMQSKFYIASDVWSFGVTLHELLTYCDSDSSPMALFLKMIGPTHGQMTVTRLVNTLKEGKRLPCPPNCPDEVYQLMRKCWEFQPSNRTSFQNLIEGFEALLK
The assay is described as follows: JAK1 inhibition assay (polyGT substrate / Ulight-JAK1 peptide). Conditions: recombinant human JAK1 catalytic domain; polyGT or Ulight-JAK1 peptide assay. It counts as biochemical. The procedure, abridged: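 Two formats. PolyGT radiometric: 45 min at 30 °C, stopped with phosphoric acid, counted as cpm. Ulight-JAK1 peptide: 60 min at room temperature, stopped with Eu-anti-phosphotyrosine/EDTA, read as RFU. Percent inhibition normalised to vehicle and 10 μM staurosporine.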

In assay [3] the target is T3, human TYK2 (Homo sapiens, UniProt P29597).
T3 construct: catalytic domain (amino acids 871-1187; catalog number 08-147); purchased Carna Biosciences 08-147
T3 sequence (P29597 871-1187): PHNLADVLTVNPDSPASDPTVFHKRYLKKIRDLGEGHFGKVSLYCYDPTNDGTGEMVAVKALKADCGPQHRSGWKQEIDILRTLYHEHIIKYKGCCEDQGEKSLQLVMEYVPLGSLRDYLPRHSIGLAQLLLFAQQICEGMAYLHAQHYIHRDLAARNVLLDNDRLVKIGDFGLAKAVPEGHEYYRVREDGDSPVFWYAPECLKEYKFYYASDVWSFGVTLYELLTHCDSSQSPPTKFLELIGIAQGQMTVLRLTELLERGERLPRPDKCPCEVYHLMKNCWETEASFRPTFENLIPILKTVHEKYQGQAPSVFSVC
The assay is described as follows: TYK2 inhibition assay. The class given is biochemical. Conditions: recombinant human TYK2 catalytic domain, polyGT substrate. In short, it runs like this: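 Radiometric kinase reaction run 90 min at 30 °C, stopped with phosphoric acid, washed and scintillation-counted.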

In assay [4] the test system is pSTAT1(2)-luciferase reporter in HeLa cells triggered with human OSM. Description: JAK-STAT signalling assay. The class given is cell-based. Conditions: read-out: JAK-STAT IC50. In short, it runs like this:
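HeLa cells transiently co-transfected with pSTAT1(2)-luciferase and LacZ control reporter, preincubated with compound 60 min, then stimulated with human OSM (33 ng/mL final) overnight at 37 °C. Luciferase read by luminescence; percent inhibition from vehicle and no-trigger controls, EC50 from dose-response.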

Setting [5] is: Homo sapiens, HeLa, HeLa cells, pSTAT1(2)-luciferase reporter, human OSM 33 ng/mL.

T1 sequence (P52333 781-1124): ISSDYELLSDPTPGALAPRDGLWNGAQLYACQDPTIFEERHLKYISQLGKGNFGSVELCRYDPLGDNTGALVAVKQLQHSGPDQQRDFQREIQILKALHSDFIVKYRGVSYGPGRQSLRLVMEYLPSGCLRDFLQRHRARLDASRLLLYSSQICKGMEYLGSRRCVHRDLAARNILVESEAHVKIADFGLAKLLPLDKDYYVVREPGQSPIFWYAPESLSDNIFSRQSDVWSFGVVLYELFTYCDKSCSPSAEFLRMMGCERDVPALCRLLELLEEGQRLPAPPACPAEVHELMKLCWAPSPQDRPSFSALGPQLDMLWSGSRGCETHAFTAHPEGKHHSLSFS

On to `CCc1cc(C2=CCN(C(=O)NC3(C)CC3)CC2)ccc1N(C)c1cc2c(cn1)ncn2C` [Compound 202, 4-(3-ethyl-4-(methyl(1-methyl-1H-imidazo[4,5-c]pyridin-6-yl)amino)phenyl)-N-(1-methylcyclopropyl)-5,6-dihydropyridine-1(2H)-carboxamide], for which the IC50 (commonly the concentration that inhibits the measured activity by half) in assay [1] lay in the range of 101 to 500 nM; in assay [2], 0.01 to 100 nM; in assay [3], 0.01 to 100 nM; in assay [4] (setting [5]), 1 to 500 nM.

For `CCc1cc(-c2cnccc2Cl)ccc1N(C)c1cc2c(cn1)ncn2C` [Compound 155, N-(4-(4-chloropyridin-3-yl)-2-ethylphenyl)-N,1-dimethyl-1H-imidazo[4,5-c]pyridin-6-amine], the IC50 in assay [1] lay within 101 to 500 nM; in assay [2] it was 0.01 to 100 nM; in assay [3] it was 0.01 to 100 nM; in assay [4] (setting [5]), 501 to 1000 nM.

Consider `CCc1cc(C2=CCN(C(=O)C3(C#N)CC3)CC2)ccc1N(C)c1cc2c(cn1)ncn2C` [Compound 198, 1-(4-(3-ethyl-4-(methyl(1-methyl-1H-imidazo[4,5-c]pyridin-6-yl)amino)phenyl)-1,2,3,6-tetrahydropyridine-1-carbonyl)cyclopropane-carbonitrile], for which the IC50 in assay [1] lay within 101 to 500 nM; in assay [2] it was 0.01 to 100 nM; in assay [3], 0.01 to 100 nM; in assay [4] (setting [5]), 501 to 1000 nM.

As for `CCc1cc(C2=CCN(S(=O)(=O)CC(F)(F)F)CC2)ccc1N(C)c1cc2c(cn1)ncn2C` [Compound 232, N-(2-ethyl-4-(1-(2,2,2-trifluoroethylsulfonyl)-1,2,3,6-tetrahydropyridin-4-yl)phenyl)-N,1-dimethyl-1H-imidazo[4,5-c]pyridin-6-amine], the IC50 was 0.01 to 100 nM in assay [1], 0.01 to 100 nM in assay [2], 0.01 to 100 nM in assay [3] and greater than 1000 nM in assay [4] (setting [5]).

As to `CCc1cc(-c2noc(CCC#N)n2)ccc1N(C)c1cc2c(cn1)ncn2C` [Compound 156, 3-(3-(3-Ethyl-4-(methyl(1-methyl-1H-imidazo[4,5-c]pyridin-6-yl)amino)phenyl)-1,2,4-oxadiazol-5-yl)propanenitrile], the IC50 is greater than 1000 nM in assay [1], 0.01 to 100 nM in assay [2], 0.01 to 100 nM in assay [3] and 501 to 1000 nM in assay [4] (setting [5]).

On to `CCOc1ccc(N(C)c2cc3c(cn2)ncn3C)c(CC)c1` [Compound 272, N-(4-ethoxy-2-ethylphenyl)-N,1-dimethyl-1H-imidazo[4,5-c]pyridin-6-amine], for which the IC50 in assay [1] was in the range of 501 to 1000 nM; in assay [2], 0.01 to 100 nM; in assay [3] it was 0.01 to 100 nM; in assay [4] (setting [5]), 501 to 1000 nM.

`CCc1cc(CNC(=O)NC#N)ccc1N(C)c1cc2c(cn1)ncn2C` [Compound 258, 1-{3-Ethyl-4-[methyl-(1-methyl-1H-imidazo[4,5-c]pyridin-6-yl)-amino]-benzyl}-3-cyano-urea]: the IC50 in assay [1] is 101 to 500 nM; in assay [2], 0.01 to 100 nM; in assay [3], 101 to 500 nM; in assay [4] (Homo sapiens, HeLa) it was greater than 1000 nM.

With `CCc1cc(C2=CCN(S(=O)(=O)CC#N)CC2)ccc1N(C)c1cc2c(cn1)ncn2C` [Compound 247, 2-(4-(3-ethyl-4-(methyl(1-methyl-1H-imidazo[4,5-c]pyridin-6-yl)amino)phenyl)-5,6-dihydropyridin-1(2H)-ylsulfonyl)acetonitrile], the IC50 in assay [1] lay within 0.01 to 100 nM; in assay [2], 0.01 to 100 nM; in assay [3], 0.01 to 100 nM; in assay [4] (setting [5]) it was 1 to 500 nM.

As to `CCc1cc(C2=CCOCC2)ccc1N(C)c1cc2c(cn1)ncn2C` [Compound 153, N-(4-(3,6-dihydro-2H-pyran-4-yl)-2-ethylphenyl)-N,1-dimethyl-1H-imidazo[4,5-c]pyridin-6-amine], the IC50 in assay [1] lay within 101 to 500 nM; in assay [2], 0.01 to 100 nM; in assay [3], 0.01 to 100 nM; in assay [4] (setting [5]), 1 to 500 nM.

Turning to `CCc1cc(-c2cnn(CC(N)=O)c2)ccc1N(C)c1cc2c(cn1)ncn2C` [Compound 222, 2-(4-(3-Ethyl-4-(methyl(1-methyl-1H-imidazo[4,5-c]pyridin-6-yl)amino)phenyl)-1H-pyrazol-1-yl)acetamide], the IC50 in assay [1] was in the range of 101 to 500 nM; in assay [2] it was 0.01 to 100 nM; in assay [3], 0.01 to 100 nM; in assay [4] (setting [5]), 1 to 500 nM.

Turning to `CCc1cc(CN2CCN(S(C)(=O)=O)CC2)ccc1N(C)c1cc2c(cn1)ncn2C` [Compound 136, N-(2-Ethyl-4-((4-(methylsulfonyl)piperazin-1-yl)methyl)phenyl)-N,1-dimethyl-1H-imidazo[4,5-c]pyridin-6-amine], the IC50 was 501 to 1000 nM in assay [1], 0.01 to 100 nM in assay [2], 0.01 to 100 nM in assay [3] and 501 to 1000 nM in assay [4] (setting [5]).

For `CCc1cc(C2=CCN(C(=O)CCC#N)CC2)ccc1N(C)c1cc2c(cn1)ncn2C` [Compound 196, 4-(4-(3-ethyl-4-(methyl(1-methyl-1H-imidazo[4,5-c]pyridin-6-yl)amino)phenyl)-5,6-dihydropyridin-1(2H)-yl)-4-oxobutanenitrile], the IC50 in assay [1] fell in the range of 101 to 500 nM; in assay [2], 0.01 to 100 nM; in assay [3], 0.01 to 100 nM; in assay [4] (setting [5]), 501 to 1000 nM.

Consider `CCc1cc(OC)ccc1N(C)c1cc2c(cn1)ncn2C` [Compound 271, N-(2-ethyl-4-methoxyphenyl)-N,1-dimethyl-1H-imidazo[4,5-c]pyridin-6-amine], for which the IC50 fell in the range of 501 to 1000 nM in assay [1], 0.01 to 100 nM in assay [2], 0.01 to 100 nM in assay [3] and 1 to 500 nM in assay [4] (setting [5]).

As to `CCc1cc(C2CCN(C(=O)C(C)O)CC2)ccc1N(C)c1cc2c(cn1)ncn2C` (stereo not drawn) [Compound 235, 1-(4-(3-ethyl-4-(methyl(1-methyl-1H-imidazo[4,5-c]pyridin-6-yl)amino)phenyl)piperidin-1-yl)-2-hydroxypropan-1-one], the IC50 in assay [1] is 101 to 500 nM; in assay [2], 0.01 to 100 nM; in assay [3], 0.01 to 100 nM; in assay [4] (HeLa cells, pSTAT1(2)-luciferase reporter, human OSM 33 ng/mL), 501 to 1000 nM.

`CCc1cc(-c2ccc(O)nc2)ccc1N(C)c1cc2c(cn1)ncn2C` [Compound 132, 5-(3-Ethyl-4-(methyl(1-methyl-1H-imidazo[4,5-c]pyridin-6-yl)amino)phenyl)pyridin-2-ol]: the IC50 in assay [1] was 101 to 500 nM; in assay [2], 0.01 to 100 nM; in assay [3], 0.01 to 100 nM; in assay [4] (setting [5]) it was 501 to 1000 nM.

`CCc1cc(-c2cnn(CC#N)c2)ccc1N(C)c1cc2c(cn1)ncn2C` [Compound 209, 2-(4-(3-ethyl-4-(methyl(1-methyl-1H-imidazo[4,5-c]pyridin-6-yl)amino)phenyl)-1H-pyrazol-1-yl)acetonitrile]: the IC50 in assay [1] lay within 101 to 500 nM; in assay [2], 0.01 to 100 nM; in assay [3], 101 to 500 nM; in assay [4] (setting [5]) it was 501 to 1000 nM.

Turning to `CCc1cc(C2=CCN(C(=O)[C@H](C)O)CC2)ccc1N(C)c1cc2c(cn1)ncn2C` [Compound 251, (S)-1-(4-(3-ethyl-4-(methyl(1-methyl-1H-imidazo[4,5-c]pyridin-6-yl)amino)phenyl)-5,6-dihydropyridin-1(2H)-yl)-2-hydroxypropan-1-one], the IC50 lay in the range of 101 to 500 nM in assay [1], 0.01 to 100 nM in assay [2], 0.01 to 100 nM in assay [3] and 1 to 500 nM in assay [4] (setting [5]).

As to `CCc1cc(C(=O)NCCO)ccc1N(C)c1cc2c(cn1)ncn2C` [Compound 160, 3-ethyl-N-(2-hydroxyethyl)-4-(methyl(1-methyl-1H-imidazo[4,5-c]pyridin-6-yl)amino)benzamide], the IC50 is greater than 1000 nM in assay [1], 0.01 to 100 nM in assay [2], greater than 1000 nM in assay [3] and greater than 1000 nM in assay [4] (setting [5]).
